Legend:
Experiment in all cases: relative viability (nuclei count vs DMSO), 5 days (fraction); higher = more cells survive
[1] = compound: OCc1c[nH]c2ccccc12 [Indole-3-carbinol] + CS(=O)(=O)CCNCc1ccc(-c2ccc3ncnc(Nc4ccc(OCc5cccc(F)c5)c(Cl)c4)c3c2)o1 [Lapatinib] (partner 2 µM)
Method in brief: (§1)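 Lung cancer cell lines in 1536-well plates were dosed by pin tool the day after seeding, either with one drug alone or with a fixed anchor-drug dose plus five library-drug doses (not always all listed) in √10 steps. After 5 days, cells were fixed and their nuclei stained in one step (final 0.05% Triton X-100, 1% formaldehyde, 1 ug/ml Hoechst), then counted on 4× images. Relative viability is the nuclei count in treated wells divided by that in vehicle wells. Values are medians of duplicate plates.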

[2] = compound: OCc1c[nH]c2ccccc12 [Indole-3-carbinol] + Cc1nc(NC(=O)N2CCC[C@H]2C(N)=O)sc1-c1ccnc(C(C)(C)C(F)(F)F)c1 [Alpelisib] (partner 2 µM)
Method in brief: as §1

[3] = compound: OCc1c[nH]c2ccccc12 [Indole-3-carbinol] + Cc1nc(Nc2ncc(C(=O)Nc3c(C)cccc3Cl)s2)cc(N2CCN(CCO)CC2)n1 [Dasatinib] (partner 0.075 µM)
Method in brief: as §1

[4] = compound: OCc1c[nH]c2ccccc12 [Indole-3-carbinol] + N=C(N)NC(=N)NCCc1ccccc1 [Phenformin] (partner 250 µM)
Method in brief: as §1

[5] = compound: OCc1c[nH]c2ccccc12 [Indole-3-carbinol] + NC(=O)Nc1cc(-c2cccc(F)c2)sc1C(=O)N[C@H]1CCCNC1 [AZD7762] (partner 0.2 µM)
Method in brief: as §1

Row | Cell Line | relative viability ([1]; first compound 0.253 µM) | relative viability ([1]; first compound 0.8 µM) | relative viability ([1]; first compound 2.53 µM) | relative viability ([1]; first compound 8 µM) | relative viability ([2]; first compound 0.253 µM) | relative viability ([2]; first compound 0.8 µM) | relative viability ([2]; first compound 2.53 µM) | relative viability ([2]; first compound 8 µM) | relative viability ([3]; first compound 0.253 µM) | relative viability ([3]; first compound 0.8 µM) | relative viability ([3]; first compound 2.53 µM) | relative viability ([3]; first compound 8 µM) | relative viability ([4]; first compound 0.253 µM) | relative viability ([4]; first compound 0.8 µM) | relative viability ([4]; first compound 2.53 µM) | relative viability ([4]; first compound 8 µM) | relative viability ([5]; first compound 0.253 µM) | relative viability ([5]; first compound 0.8 µM) | relative viability ([5]; first compound 2.53 µM) | relative viability ([5]; first compound 8 µM)
1 | 201T | 1.1 | 0.969 | 1.01 | 0.999 | 0.954 | 1.04 | 1.06 | 1.06 | 0.556 | 0.635 | 0.566 | 0.554 | 0.42 | 0.478 | 0.505 | 0.446 | 0.623 | 0.591 | 0.614 | 0.725
2 | A-427 | 1.03 | 1 | 0.989 | 0.976 | 1.01 | 1.14 | 1.05 | 0.953 | 0.676 | 0.768 | 0.742 | 0.564 | 0.35 | 0.351 | 0.339 | 0.298 | 0.72 | 0.763 | 0.908 | 0.778
3 | ABC-1 | 1.27 | 1.2 | 1.37 | 0.845 | 0.923 | 1.2 | 1.01 | 0.923 | 0.47 | 0.596 | 0.456 | 0.591 | 0.254 | 0.238 | 0.265 | 0.259 | 0.72 | 0.974 | 0.618 | 0.833
4 | BEN | 0.782 | 0.72 | 0.718 | 0.696 | 0.948 | 0.808 | 1.02 | 0.929 | 0.334 | 0.351 | 0.318 | 0.294 | 0.269 | 0.262 | 0.265 | 0.253 | 0.635 | 0.706 | 0.732 | 0.784
5 | CAL-12T | 0.728 | 0.592 | 0.665 | 0.527 | 1.04 | 1.61 | 1.47 | 1.17 | 0.385 | 0.53 | 0.536 | 0.366 | 0.584 | 0.553 | 0.58 | 0.559 | 0.608 | 0.631 | 0.733 | 0.536
6 | COR-L23 | 0.921 | 0.918 | 0.998 | 0.887 | 0.818 | 1.06 | 0.673 | 0.601 | 0.505 | 0.571 | 0.586 | 0.542 | 0.413 | 0.456 | 0.41 | 0.403 | – | – | – | –
7 | COR-L 105 | 0.339 | 0.281 | 0.353 | 0.343 | 1.07 | 1.21 | 0.925 | 0.979 | 0.368 | 0.337 | 0.396 | 0.301 | 0.497 | 0.408 | 0.488 | 0.416 | – | – | – | –
8 | ChaGo-K-1 | – | – | – | – | – | – | – | – | 0.583 | 0.568 | 0.709 | 0.604 | 0.479 | 0.475 | 0.551 | 0.443 | 1 | 0.853 | 0.932 | 0.869
9 | EKVX | 0.203 | 0.18 | 0.207 | 0.198 | 0.763 | 0.973 | 0.9 | 0.852 | 0.564 | 0.54 | 0.535 | 0.67 | 0.232 | 0.223 | 0.227 | 0.234 | 0.759 | 0.752 | 0.744 | 0.633
10 | EMC-BAC-2 | 0.879 | 0.76 | 0.852 | 0.813 | 0.715 | 0.731 | 0.741 | 0.665 | 0.329 | 0.307 | 0.337 | 0.312 | 0.528 | 0.536 | 0.489 | 0.413 | 1.15 | 1.17 | 1.05 | 1.11
11 | EPLC-272H | 1.3 | 0.851 | 1.04 | 0.716 | 1.13 | 0.94 | 0.931 | 0.803 | 0.44 | 0.406 | 0.403 | 0.387 | 0.347 | 0.292 | 0.285 | 0.258 | 0.26 | 0.236 | 0.18 | 0.214
12 | H3255 | 0.245 | 0.235 | 0.227 | 0.255 | 0.671 | 0.741 | 0.675 | 0.643 | 0.346 | 0.456 | 0.338 | 0.321 | 0.397 | 0.385 | 0.414 | 0.343 | 0.892 | 0.755 | 0.911 | 0.747
13 | HARA | 0.932 | 0.737 | 0.711 | 0.654 | 0.759 | 0.808 | 0.93 | 0.773 | 0.289 | 0.296 | 0.323 | 0.198 | 0.484 | 0.479 | 0.554 | 0.435 | 0.355 | 0.239 | 0.313 | 0.463
14 | HCC-15 | 0.965 | 0.951 | 0.893 | 0.829 | 0.824 | 0.986 | 0.987 | 0.848 | 0.615 | 0.745 | 0.611 | 0.607 | 0.54 | 0.556 | 0.472 | 0.468 | 1.31 | 1.14 | 1.38 | 1.26

From the supplement of paper PMC10307832
